Results on eleven compounds are retold here after patent US20250195477A1, “DEUTERATED IDAZOXAN AND METHODS OF USE THEREOF” (Terran Biosciences Inc., priority 2022, published 2025).

SMILES strings stand for the structures.

A short description of data set [1]: Metabolic stability in human liver microsomes. It counts as in vitro ADME. To be noted: significant if half-life increase >=15% or CLint ratio (deuterated compound/idazoxan) >1.15 or <0.85. The method, then: Test compound (1 μM) was incubated with pooled liver microsomes.
Pooled liver microsomes were purchased from a reputable commercial supplier. Microsomes were stored at −80° C. prior to use.
A minus cofactor control incubation was included for each compound tested where 0.1 M phosphate buffer pH 7.4 was added instead of NADPH (minus NADPH). Two control compounds were included with each species. All incubations were performed singularly for each test compound.
The reactions were stopped by transferring incubate into acetonitrile at the appropriate time points, in a 1:3 ratio. The termination plates were centrifuged at 3,000 rpm for 20 min at 4° C. to precipitate the protein.
Following protein precipitation, the sample supernatants were combined in cassettes of up to 4 compounds, internal standard was added and samples analysed using generic LCMS/MS conditions.
From a plot of In peak area ratio (compound peak area/internal standard peak area) against time, the gradient of the line was determined. Subsequently, half-life and intrinsic clearance were calculated using the equations below:
where V=Incubation volume (μL)/Microsomal protein (mg)
Relevant control compounds were assessed, ensuring intrinsic clearance values fell within the specified limits (if available). Any failures were rejected and the assay repeated. The intrinsic clearance (CLint) of the test compound and standard error (SE CLint), t½ and n (number of time points used to calculate CLint) were returned.
In general terms: Microsomes from liver hold many membrane-bound enzymes, among them those of drug oxidation.

Data set [2] in a line: Metabolic stability in human liver microsomes. The class given is in vitro ADME. To be noted: pH 7.4, pooled human liver microsomes 0.5 mg/mL, test compound 3 μM, NADPH, 0, 5, 15, 30, 45 min, LC-MS/MS; for microsomal CLint at 3 μM: read-out: CLint (μL/min/mg protein).
For data set [3] the following is noted: background statement; species and route not given; cited from earlier work.

Usually half-life stands for the time in which the quantity being followed falls by half. For `[2H]c1ccc2c(c1)OCC(C1=NCCN1)O2` (centres unmarked) [Compound 1, 2-(2,3-dihydrobenzo[b][1,4]dioxin-2-yl-6-d)-4,5-dihydro-1H-imidazole], the “differences in in vitro clearance and half-life compared to idazoxan” value (“differences” below) in data set [1] is reported as “significant differences”. Besides, in data set [2], the half-life at 3 μM came to 8.05 h and the microsomal CLint at 3 μM is 2.87 µL/min/mg.

As to `[2H]c1c([2H])c([2H])c2c(c1[2H])OCC(C1=NC([2H])([2H])C([2H])([2H])N1)O2` (centres unmarked) [Compound 52, 2-(2,3-dihydrobenzo[b][1,4]dioxin-2-yl-5,6,7,8-d4)-4,5-dihydro-1H-imidazole-4,4,5,5-d4], the “differences” value in data set [1] is listed as “significant differences”. Moreover, in data set [2], the half-life at 3 μM is 7.75 h and the microsomal CLint at 3 μM was 2.98 µL/min/mg.

Consider `[2H]c1ccc2c(c1)OC(C1=NC([2H])([2H])C([2H])([2H])N1)CO2` (centres unmarked) [Compound 50, 2-(2,3-dihydrobenzo[b][1,4]dioxin-2-yl-7-d)-4,5-dihydro-1H-imidazole-4,4,5,5-d4], for which, in data set [1], the “differences” value is recorded as “significant differences”. Besides, in data set [2], the half-life at 3 μM worked out at 913 h and the microsomal CLint at 3 μM is 0.0253 µL/min/mg.

`[2H]c1c([2H])c([2H])c2c(c1[2H])OCC(C1=NCCN1)O2` (centres unmarked) [Compound 4, 2-(2,3-dihydrobenzo[b][1,4]dioxin-2-yl-5,6,7,8-d4)-4,5-dihydro-1H-imidazole]: the “differences” value in data set [1] is “significant differences”. For the same compound, in data set [2], the half-life at 3 μM is 8.93 h and the microsomal CLint at 3 μM stood at 2.59 µL/min/mg.

On to `[2H]c1cc2c(cc1[2H])OC(C1=NC([2H])([2H])C([2H])([2H])N1)CO2` (centres unmarked) [Compound 51, 2-(2,3-dihydrobenzo[b][1,4]dioxin-2-yl-6,7-d2)-4,5-dihydro-1H-imidazole-4,4,5,5-d4], for which the “differences” value in data set [1] is listed as “significant differences”. In data set [2], the half-life at 3 μM turned out to be 13.8 h and the microsomal CLint at 3 μM was determined as 1.68 µL/min/mg.

As to `[2H]c1cc2c(cc1[2H])OC(C1=NCCN1)CO2` (centres unmarked) [Compound 3, 2-(2,3-dihydrobenzo[b][1,4]dioxin-2-yl-6,7-d2)-4,5-dihydro-1H-imidazole], in data set [1], the “differences” value is listed as “significant differences”. Further, in data set [2], the half-life at 3 μM was 10.4 h and the microsomal CLint at 3 μM is 2.23 µL/min/mg.

On to `[2H]c1ccc2c(c1)OCC(C1=NC([2H])([2H])C([2H])([2H])N1)O2` (centres unmarked) [Compound 49, 2-(2,3-dihydrobenzo[b][1,4]dioxin-2-yl-6-d)-4,5-dihydro-1H-imidazole-4,4,5,5-d4], for which the “differences” value in data set [1] is given as “significant differences”. In addition, in data set [2], the half-life at 3 μM is 15.5 h and the microsomal CLint at 3 μM was found to be 1.49 µL/min/mg.

Consider `COc1ccc2c(c1)[C@]13CCCC[C@@H]1[C@H](C2)N(C)CC3` [Dextromethorphan, reference compound], for which, in data set [2], the half-life at 3 μM came out at 0.48 h and the microsomal CLint at 3 μM was 48.1 µL/min/mg.

Regarding `[2H]c1ccc2c(c1)OC(C1=NCCN1)CO2` (centres unmarked) [Compound 2, 2-(2,3-dihydrobenzo[b][1,4]dioxin-2-yl-7-d)-4,5-dihydro-1H-imidazole], the “differences” value in data set [1] was “significant differences”. Also, in data set [2], the half-life at 3 μM was found to be 21.8 h and the microsomal CLint at 3 μM was found to be 1.06 µL/min/mg.

As to `c1ccc2c(c1)OCC(C1=NCCN1)O2` (centres unmarked) [Idazoxan], in data set [2], the half-life at 3 μM came to 4.28 h and the microsomal CLint at 3 μM was 5.39 µL/min/mg. For the same compound, in data set [3], the “idazoxan reaching systemic circulation” value was 27-28%.

As to `[2H]C1([2H])N=C(C2COc3ccccc3O2)NC1([2H])[2H]` (centres unmarked) [Compound 64, 2-(2,3-dihydrobenzo[b][1,4]dioxin-2-yl)-4,5-dihydro-1H-imidazole-4,4,5,5-d4], in data set [1], the “differences” value is “significant differences”. For the same compound, in data set [2], the half-life at 3 μM turned out to be 7.95 h and the microsomal CLint at 3 μM amounted to 2.91 µL/min/mg.
